Data as given in the supplement of paper PMC10307832.

Assays:
Assay in all cases: relative viability (nuclei count vs DMSO), 5 days (fraction); higher = more cells survive
Veliparib + OSI-027 = compound: C[C@]1(c2nc3c(C(N)=O)cccc3[nH]2)CCCN1 [Veliparib] + COc1cccc2cc(-c3nc([C@H]4CC[C@H](C(=O)O)CC4)n4ncnc(N)c34)[nH]c12 [OSI-027] (partner 0.5 µM)
In short: (§1)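 The day after seeding in 1536-well plates, lung cancer cell lines were treated by pin tool with a single drug, or with a fixed anchor-drug dose together with five library-drug doses (not always all listed) in √10 steps. After 5 days, a combined fix-and-stain solution (final 0.05% Triton X-100, 1% formaldehyde, 1 ug/ml Hoechst) was added. Nuclei counted on 4× images gave relative viability as treated counts over vehicle counts, reported as the median of duplicate plates.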

[1] = compound: COC1=CC=C(C=C1)CN2C=CC3=C2C=C(C=C3)C(=O)NO + COc1cc2c(Oc3ccc(NC(=O)C4(C(=O)Nc5ccc(F)cc5)CC4)cc3F)ccnc2cc1OCCCN1CCOCC1 [Foretinib] (partner 0.25 µM)
In short: as §1

Veliparib + Lapatinib = compound: C[C@]1(c2nc3c(C(N)=O)cccc3[nH]2)CCCN1 [Veliparib] + CS(=O)(=O)CCNCc1ccc(-c2ccc3ncnc(Nc4ccc(OCc5cccc(F)c5)c(Cl)c4)c3c2)o1 [Lapatinib] (partner 2 µM)
In short: as §1

Veliparib + Pemetrexed = compound: C[C@]1(c2nc3c(C(N)=O)cccc3[nH]2)CCCN1 [Veliparib] + Nc1nc2[nH]cc(CCc3ccc(C(=O)N[C@@H](CCC(=O)O)C(=O)O)cc3)c2c(=O)[nH]1 [Pemetrexed] (partner 0.2 µM)
In short: as §1

Cell Line	relative viability (Veliparib + OSI-027; first compound 0.02 µM)	relative viability (Veliparib + OSI-027; first compound 0.06325 µM)	relative viability (Veliparib + OSI-027; first compound 0.2 µM)	relative viability (Veliparib + OSI-027; first compound 0.6325 µM)	relative viability (Veliparib + OSI-027; first compound 2 µM)	relative viability ([1]; first compound 0.08 µM)	relative viability ([1]; first compound 0.253 µM)	relative viability ([1]; first compound 0.8 µM)	relative viability ([1]; first compound 2.53 µM)	relative viability ([1]; first compound 8 µM)	relative viability (Veliparib + Lapatinib; first compound 0.02 µM)	relative viability (Veliparib + Lapatinib; first compound 0.06325 µM)	relative viability (Veliparib + Lapatinib; first compound 0.2 µM)	relative viability (Veliparib + Lapatinib; first compound 0.6325 µM)	relative viability (Veliparib + Lapatinib; first compound 2 µM)	relative viability (Veliparib + Pemetrexed; first compound 0.02 µM)	relative viability (Veliparib + Pemetrexed; first compound 0.06325 µM)	relative viability (Veliparib + Pemetrexed; first compound 0.2 µM)	relative viability (Veliparib + Pemetrexed; first compound 0.6325 µM)	relative viability (Veliparib + Pemetrexed; first compound 2 µM)
201T	0.659	0.58	0.713	0.759	0.722	1.06	1.15	1.24	1.06	0.999	1	1.03	1.04	1.05	0.995	0.345	0.334	0.355	0.352	0.362
A549	–	–	–	–	–	0.802	0.965	0.948	0.952	0.987	1.12	0.93	0.978	0.869	0.957	–	–	–	–	–
A-427	–	0.414	0.485	0.456	0.463	–	1.03	1.16	1.12	1	1.11	1	0.994	1.04	0.802	1	0.966	0.946	1.03	1.04
ABC-1	–	0.429	0.618	0.493	0.312	–	1.14	1.02	0.935	1.14	–	1.17	1.18	0.878	1.1	–	–	–	–	–
BEN	0.288	0.315	0.294	0.296	0.3	0.604	0.459	0.454	0.641	0.479	0.445	0.72	0.777	0.824	0.81	0.576	0.771	0.743	0.795	0.631
CAL-12T	0.62	0.629	0.604	0.584	0.657	0.918	1	1.2	1.06	1	0.649	0.706	0.647	0.593	0.781	1.23	1.06	1.32	1.09	1.3
COR-L23	0.707	0.738	0.841	0.57	0.77	0.741	0.992	0.985	0.99	0.945	0.795	0.81	0.802	0.982	0.978	0.206	0.202	0.201	0.181	0.202
COR-L 105	0.462	0.715	0.651	0.626	0.654	0.681	1.43	0.853	1.08	0.212	0.35	0.371	0.327	0.362	0.388	1.27	1.09	1.27	1.19	1.01
Calu-6	–	–	–	–	–	0.419	0.853	0.851	0.889	0.725	1.14	0.985	0.96	0.971	0.989	–	–	–	–	–
ChaGo-K-1	0.266	0.519	0.513	0.589	0.55	–	0.932	0.898	0.802	0.869	–	–	–	–	–	0.227	0.266	0.245	0.246	0.257
EBC-1	–	–	–	–	–	0.0855	0.0996	0.0919	0.102	0.113	0.205	0.21	0.208	0.201	0.244	–	–	–	–	–
EKVX	0.629	0.646	0.63	0.639	0.675	0.542	0.555	0.801	0.762	0.849	0.19	0.203	0.217	0.201	0.231	–	0.391	0.421	0.461	0.444
EMC-BAC-2	0.346	0.318	0.379	0.349	0.345	0.788	1.03	0.98	0.977	0.922	0.863	0.85	0.867	0.86	0.884	0.492	0.408	0.438	0.442	0.502
EPLC-272H	0.227	0.273	0.265	0.26	0.344	0.293	–	0.653	0.704	0.662	–	0.71	0.988	1.1	0.877	–	0.273	0.359	0.283	0.418
H3255	0.674	0.681	0.584	0.545	0.584	0.92	0.702	0.821	0.89	0.398	0.227	0.209	0.27	0.289	0.261	0.541	0.561	0.548	0.53	0.629
HARA	0.508	0.495	0.465	0.433	0.485	–	0.868	0.958	0.826	0.55	0.748	0.57	0.86	0.743	0.853	0.254	–	0.219	0.265	0.261
HCC-15	–	0.641	0.7	0.619	0.603	0.642	1.02	1	1.03	1.01	0.706	0.893	0.779	0.849	0.891	0.219	0.214	0.228	0.2	0.239
HCC-44	0.556	–	0.478	0.682	0.479	–	–	–	–	–	0.986	0.85	1.01	0.933	1.07	0.606	0.656	0.655	0.59	0.63
HCC-78	0.4	0.364	0.339	0.402	0.423	0.529	0.629	0.594	0.585	0.6	0.762	0.837	0.652	0.849	0.566	0.909	0.925	0.91	0.494	0.853
